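Values below derive from 48-hour exposures of cells grown in 96-well plates, with endpoints linearly interpolated between the two concentrations bracketing the appropriate inhibition level. At the TGI there is no net growth.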
Columns and labels:
Test in all cases: growth of human tumour cells (NCI), 48 h
[1] = test system: ACHN renal
[2] = test system: TK-10 renal
[3] = test system: MDA-MB-435
[4] = test system: A549 NSCLC
[5] = test system: NCI-H226 lung
[6] = test system: NCI/ADR-RES ovarian
[7] = test system: MDA-MB-231 breast
[8] = test system: HCT-15 colon
[9] = test system: HOP-62 NSCLC
[10] = test system: OVCAR-8 ovarian
[11] = test system: KM12 colon
[12] = test system: SK-MEL-28 melanoma
[13] = test system: SK-MEL-5 melanoma
[14] = test system: SNB-19 CNS
[15] = test system: 786-0 renal
[16] = test system: HT29 colon
[17] = test system: M14 melanoma
[18] = test system: OVCAR-3 ovarian
[19] = test system: OVCAR-5 ovarian
[20] = test system: SN12C renal
[21] = test system: SF-295 CNS
[22] = test system: RXF 393 renal
[23] = test system: U251 CNS
[24] = test system: BT-549 breast
[25] = test system: K-562 leukemia
[26] = test system: UACC-62 melanoma
[27] = test system: MOLT-4 leukemia
[28] = test system: SF-539 CNS
[29] = test system: MCF7 breast
[30] = test system: IGROV1 ovarian
[31] = test system: NCI-H460 lung
[32] = test system: T-47D breast
[33] = test system: CCRF-CEM leukemia
[34] = test system: UACC-257 melanoma
[35] = test system: SR leukemia
[36] = test system: HCT-116 colon
[37] = test system: EKVX NSCLC
[38] = test system: MALME-3M melanoma
[39] = test system: SNB-75 CNS
[40] = test system: SW-620 colon
[41] = test system: LOX IMVI melanoma
[42] = test system: NCI-H522 lung
[43] = test system: PC-3 prostate
[44] = test system: OVCAR-4 ovarian
[45] = test system: HCC-2998 colon
[46] = test system: SF-268 CNS
[47] = test system: HS 578T breast
[48] = test system: UO-31 renal
[49] = test system: SK-MEL-2 melanoma
[50] = test system: NCI-H23 lung
[51] = test system: CAKI-1 renal

## CC[n+]1[b-](C(C)(C)C)n(/N=C(\C)C(C)(C)C)[b-](C(C)(C)C)[n+]1CC
[1]
  TGI: > 100 µM
[2]
  TGI: > 100 µM
[3]
  TGI: > 100 µM
[4]
  TGI: > 100 µM
[5]
  TGI: > 100 µM
[6]
  TGI: > 100 µM
[7]
  TGI: > 100 µM
[8]
  TGI: > 100 µM
[9]
  TGI: > 100 µM
[10]
  TGI: > 100 µM
[11]
  TGI: > 100 µM
[12]
  TGI: > 100 µM
[13]
  TGI: > 100 µM
[14]
  TGI: > 100 µM
[15]
  TGI: > 100 µM
[16]
  TGI: > 100 µM
[17]
  TGI: > 100 µM
[18]
  TGI: > 100 µM
[19]
  TGI: > 100 µM
[20]
  TGI: > 100 µM
[21]
  TGI: > 100 µM
[22]
  TGI: > 100 µM
[23]
  TGI: > 100 µM
[24]
  TGI: > 100 µM
[25]
  TGI: > 100 µM
[26]
  TGI: > 100 µM
[27]
  TGI: > 100 µM
[28]
  TGI: > 100 µM
[29]
  TGI: > 100 µM
[30]
  TGI: > 100 µM
[31]
  TGI: > 100 µM
[32]
  TGI: > 100 µM
[33]
  TGI: > 100 µM
[34]
  TGI: > 100 µM
[35]
  TGI: 56.8 µM
[36]
  TGI: > 100 µM
[37]
  TGI: > 100 µM
[38]
  TGI: > 100 µM
[39]
  TGI: > 100 µM
[40]
  TGI: > 100 µM
[41]
  TGI: > 100 µM
[42]
  TGI: > 100 µM
[43]
  TGI: > 100 µM
[44]
  TGI: > 100 µM
[45]
  TGI: > 100 µM
[46]
  TGI: > 100 µM
[47]
  TGI: > 100 µM
[48]
  TGI: > 100 µM
[49]
  TGI: > 100 µM
[50]
  TGI: > 100 µM
[51]
  TGI: > 100 µM

From PubChem BioAssay (NCI)
